The values below come from patent US20240199558A1, “2,4,6-TRISUBSTITUTED 1,3,5-TRIAZINES AS MODULATORS OF CX3CR1” (ASTRAZENECA AB, priority 2022, published 2024).

Structures are written as SMILES.

Usually IC50 stands for the concentration that gives 50% inhibition. A low value points to greater potency in that assay.

The assay deals with CX3CR1 (Homo sapiens (Human), UniProt P49238). Put plainly: hCX3CR1 [3H]-AZD8797 competitive binding assay (filter). As to conditions: CHO-hCX3CR1 membranes, 2 nM [3H]-AZD8797. The method in brief: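 CHO-hCX3CR1 membranes (9 μg/well) were incubated 2 h at room temperature with 2 nM [3H]-AZD8797 and varying competitor concentrations. Buffer: 25 mM HEPES pH 7.4, 10 mM MgCl2, 1 mM CaCl2, 0.5% BSA, 1% DMSO. Bound ligand was collected by vacuum filtration, washed in ice-cold buffer with 500 mM NaCl, and counted by scintillation.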
CX3CR1, sequence (P49238 whole entry): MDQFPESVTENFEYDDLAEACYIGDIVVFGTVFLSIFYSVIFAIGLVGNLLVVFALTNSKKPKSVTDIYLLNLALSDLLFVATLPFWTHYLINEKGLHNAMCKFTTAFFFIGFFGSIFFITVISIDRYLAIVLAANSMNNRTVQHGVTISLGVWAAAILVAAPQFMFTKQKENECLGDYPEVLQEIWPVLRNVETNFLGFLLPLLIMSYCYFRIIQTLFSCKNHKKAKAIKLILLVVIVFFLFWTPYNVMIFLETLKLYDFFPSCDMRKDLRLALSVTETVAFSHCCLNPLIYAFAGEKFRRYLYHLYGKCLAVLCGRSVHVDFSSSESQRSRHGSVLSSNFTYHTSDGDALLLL
Turning to `CC(C)C[C@H](CO)Nc1nc(CC(C)c2ccc(-n3ccnn3)cc2)nc(NS(C)(=O)=O)n1` (stereo partly drawn) [Example 64, N-(4-(2-(4-(1H-1,2,3-Triazol-1-yl)phenyl)propyl)-6-(((R)-1-hydroxy-4-methylpentan-2-yl)amino)-1,3,5-triazin-2-yl)methanesulfonamide], the IC50 is 0.302 µM.
Regarding `COc1ccc([C@H](C)Cc2nc(N[C@@H](CO)CC(C)C)nc(NS(C)(=O)=O)n2)cc1F` (single isomer, unassigned) [Example 19, N-(4-((R*)-2-(3-Fluoro-4-methoxyphenyl)propyl)-6-(((R)-1-hydroxy-4-methylpentan-2-yl)amino)-1,3,5-triazin-2-yl)methanesulfonamide], the half-inhibitory concentration (IC50) amounted to 0.033 µM.
Turning to `CC(C)C[C@H](CO)Nc1nc(C[C@H](C)c2ccc(Cl)c(F)c2F)nc(NS(C)(=O)=O)n1` (single isomer, unassigned) [Example 33, N-(4-((S*)-2-(4-Chloro-2,3-difluorophenyl)propyl)-6-(((R)-1-hydroxy-4-methylpentan-2-yl)amino)-1,3,5-triazin-2-yl)methanesulfonamide], the IC50 turned out to be 0.384 µM. Against the preceding compound, the IC50 is about 12-fold higher.
In turn, `CC(C)C[C@H](CO)Nc1nc(C[C@@H](C)c2c(F)cc(F)cc2F)nc(NS(C)(=O)=O)n1` (single isomer, unassigned) [Example 40, N-(4-(((R)-1-Hydroxy-4-methylpentan-2-yl)amino)-6-((R*)-2-(2,4,6-trifluorophenyl)propyl)-1,3,5-triazin-2-yl)methanesulfonamide] came in with an IC50 of 0.065 µM.
In the case of `CC(C)C[C@H](CO)Nc1nc(C[C@H](C)c2ccc(Cl)cc2)nc(NS(C)(=O)=O)n1` (single isomer, unassigned) [Example 171, N-(4-((R*)-2-(4-Chlorophenyl)propyl)-6-(((R)-1-hydroxy-4-methylpentan-2-yl)amino)-1,3,5-triazin-2-yl)methanesulfonamide] it was 0.771 µM.
For `CC(C)C[C@H](CO)Nc1nc(C[C@H](C)c2ccc(N)nc2)nc(NS(C)(=O)=O)n1` (single isomer, unassigned) [Example 50, N-(4-((S*)-2-(6-Aminopyridin-3-yl)propyl)-6-(((R)-1-hydroxy-4-methylpentan-2-yl)amino)-1,3,5-triazin-2-yl)methanesulfonamide], the 50% inhibitory concentration (IC50) is 0.342 µM.
The value for `CC(C)C[C@H](CO)Nc1nc(CC(C)c2ccc(C#N)c(F)c2)nc(NS(C)(=O)=O)n1` (stereo partly drawn) [Example 141, N-(4-(2-(4-Cyano-3-fluorophenyl)propyl)-6-(((R)-1-hydroxy-4-methylpentan-2-yl)amino)-1,3,5-triazin-2-yl)methanesulfonamide] was 0.173 µM; that for `CCOc1ccc(C(C)Cc2nc(N[C@@H](CO)CC(C)C)nc(NS(C)(=O)=O)n2)cc1F` (stereo partly drawn) [Example 119] was 0.335 µM; that for `COc1c(F)cccc1C(C)Cc1nc(N[C@@H](CO)CC(C)C)nc(NS(C)(=O)=O)n1` (stereo partly drawn) [Example 160, N-(4-(2-(3-Fluoro-2-methoxyphenyl)propyl)-6-(((R)-1-hydroxy-4-methylpentan-2-yl)amino)-1,3,5-triazin-2-yl)methanesulfonamide] was 0.35 µM.
In turn, `CC(C)C[C@H](CO)Nc1nc(CC(C)c2ccc3c(c2)oc(=O)n3C)nc(NS(C)(=O)=O)n1` (stereo partly drawn) [Example 100, N-(4-(((R)-1-Hydroxy-4-methylpentan-2-yl)amino)-6-(2-(3-methyl-2-oxo-2,3-dihydrobenzo[d]oxazol-6-yl)propyl)-1,3,5-triazin-2-yl)methanesulfonamide] came in with an IC50 of 0.16 µM.
In the case of `CC(=O)Nc1ccc(C(C)Cc2nc(N[C@@H](CO)CC(C)C)nc(NS(C)(=O)=O)n2)cc1` (stereo partly drawn) [Example 59, N-(4-(1-(4-(((R)-1-Hydroxy-4-methylpentan-2-yl)amino)-6-(methylsulfonamido)-1,3,5-triazin-2-yl)propan-2-yl)phenyl)acetamide] it was 0.292 µM.
As for `CC(C)C[C@H](CO)Nc1nc(CC(C)c2ccc(CC#N)cc2)nc(NS(C)(=O)=O)n1` (stereo partly drawn) [Example 55, N-(4-(2-(4-(Cyanomethyl)phenyl)propyl)-6-(((R)-1-hydroxy-4-methylpentan-2-yl)amino)-1,3,5-triazin-2-yl)methanesulfonamide], the half-maximal inhibitory concentration (IC50) was determined as 0.139 µM.
The value for `CC(C)C[C@H](CO)Nc1nc(C[C@H](C)c2ccc(F)c(F)c2F)nc(NS(C)(=O)=O)n1` (relative stereo) [Example 87, N-(4-(((R)-1-Hydroxy-4-methylpentan-2-yl)amino)-6-((S*)-2-(2,3,4-trifluorophenyl)propyl)-1,3,5-triazin-2-yl)methanesulfonamide] was 0.186 µM; that for `CC(C)C[C@H](CO)Nc1nc(C[C@@H](C)c2c(F)cccc2F)nc(NS(C)(=O)=O)n1` (single isomer, unassigned) [Example 78, N-(4-((R*)-2-(2,6-Difluorophenyl)propyl)-6-(((R)-1-hydroxy-4-methylpentan-2-yl)amino)-1,3,5-triazin-2-yl)methanesulfonamide] was 0.022 µM.
`CC(C)C[C@H](CO)Nc1nc(C[C@H](C)c2cc(F)c(Cl)cc2F)nc(NS(C)(=O)=O)n1` (single isomer, unassigned) [Example 37, N-(4-((S*)-2-(4-Chloro-2,5-difluorophenyl)propyl)-6-(((R)-1-hydroxy-4-methylpentan-2-yl)amino)-1,3,5-triazin-2-yl)methanesulfonamide]: the half-inhibitory concentration (IC50) was 1.93 µM.
In turn, `COc1cccc(C(C)Cc2nc(N[C@@H](CO)CC(C)C)nc(NS(C)(=O)=O)n2)c1O` (stereo partly drawn) [Example 139, N-(4-(2-(2-Hydroxy-3-methoxyphenyl)propyl)-6-(((R)-1-hydroxy-4-methylpentan-2-yl)amino)-1,3,5-triazin-2-yl)methanesulfonamide] gave an IC50 of 0.469 µM.
`CC(C)C[C@H](CO)Nc1nc(CC(C)c2cccc(-c3ccccc3)c2)nc(NS(C)(=O)=O)n1` (stereo partly drawn) [Example 157] yielded an IC50 of 4.35 µM.
In turn, `CC(C)C[C@H](CO)Nc1nc(C[C@@H](C)c2cc(F)c(Cl)cc2F)nc(NS(C)(=O)=O)n1` (single isomer, unassigned) [Example 38, N-(4-((R*)-2-(4-Chloro-2,5-difluorophenyl)propyl)-6-(((R)-1-hydroxy-4-methylpentan-2-yl)amino)-1,3,5-triazin-2-yl)methanesulfonamide] came in with an IC50 of 0.685 µM.
For `Cc1ccc(F)c(C(C)Cc2nc(N[C@@H](CO)CC(C)C)nc(NS(C)(=O)=O)n2)n1` (stereo partly drawn) [Example 155, N-(4-(2-(3-Fluoro-6-methylpyridin-2-yl)propyl)-6-(((R)-1-hydroxy-4-methylpentan-2-yl)amino)-1,3,5-triazin-2-yl)methanesulfonamide], the half-inhibitory concentration (IC50) was 1.55 µM.
For `CC(C)C[C@H](CO)Nc1nc(CC(C)(C)c2ccccc2)nc(NS(C)(=O)=O)n1` [Example 152, (R)—N-(4-((1-Hydroxy-4-methylpentan-2-yl)amino)-6-(2-methyl-2-phenylpropyl)-1,3,5-triazin-2-yl)methanesulfonamide], the IC50 is > 8.01 µM.
Compound `CC(C)C[C@H](CO)Nc1nc(CC(C)c2ccc(N3CCOCC3=O)cc2)nc(NS(C)(=O)=O)n1` (stereo partly drawn) [Example 118, N-(4-(((R)-1-Hydroxy-4-methylpentan-2-yl)amino)-6-(2-(4-(3-oxomorpholino)phenyl)propyl)-1,3,5-triazin-2-yl)methanesulfonamide] yielded an IC50 of 0.15 µM.
